Active and inactive are the calls of the source. The calls are words filed in the database; no cut-off is given here.
Columns and labels:
NCI-H1703 [1] = test: Induction of apoptosis in human NCI-H1703 cells assessed as decrease in Bcl-XL protein expression at 5 uM by measuring fold change by Western blot analysis relative to control; format: functional
NCI-H520 [2] = test: Induction of apoptosis in human NCI-H520 cells assessed as decrease in Bcl-XL protein expression at 10 uM by measuring fold change by Western blot analysis relative to control; format: functional
[3] = target: T1, Histone-lysine N-methyltransferase NSD3 (Homo sapiens) (UniProt Q9BZ95); test: Induction of NSD3 degradation in human A549 cells assessed as reduction in H3K36me3 methylation incubated for 72 hrs by Western blot analysis; format: cell-based; details: dose 5-10 µM
T1 sequence (whole entry): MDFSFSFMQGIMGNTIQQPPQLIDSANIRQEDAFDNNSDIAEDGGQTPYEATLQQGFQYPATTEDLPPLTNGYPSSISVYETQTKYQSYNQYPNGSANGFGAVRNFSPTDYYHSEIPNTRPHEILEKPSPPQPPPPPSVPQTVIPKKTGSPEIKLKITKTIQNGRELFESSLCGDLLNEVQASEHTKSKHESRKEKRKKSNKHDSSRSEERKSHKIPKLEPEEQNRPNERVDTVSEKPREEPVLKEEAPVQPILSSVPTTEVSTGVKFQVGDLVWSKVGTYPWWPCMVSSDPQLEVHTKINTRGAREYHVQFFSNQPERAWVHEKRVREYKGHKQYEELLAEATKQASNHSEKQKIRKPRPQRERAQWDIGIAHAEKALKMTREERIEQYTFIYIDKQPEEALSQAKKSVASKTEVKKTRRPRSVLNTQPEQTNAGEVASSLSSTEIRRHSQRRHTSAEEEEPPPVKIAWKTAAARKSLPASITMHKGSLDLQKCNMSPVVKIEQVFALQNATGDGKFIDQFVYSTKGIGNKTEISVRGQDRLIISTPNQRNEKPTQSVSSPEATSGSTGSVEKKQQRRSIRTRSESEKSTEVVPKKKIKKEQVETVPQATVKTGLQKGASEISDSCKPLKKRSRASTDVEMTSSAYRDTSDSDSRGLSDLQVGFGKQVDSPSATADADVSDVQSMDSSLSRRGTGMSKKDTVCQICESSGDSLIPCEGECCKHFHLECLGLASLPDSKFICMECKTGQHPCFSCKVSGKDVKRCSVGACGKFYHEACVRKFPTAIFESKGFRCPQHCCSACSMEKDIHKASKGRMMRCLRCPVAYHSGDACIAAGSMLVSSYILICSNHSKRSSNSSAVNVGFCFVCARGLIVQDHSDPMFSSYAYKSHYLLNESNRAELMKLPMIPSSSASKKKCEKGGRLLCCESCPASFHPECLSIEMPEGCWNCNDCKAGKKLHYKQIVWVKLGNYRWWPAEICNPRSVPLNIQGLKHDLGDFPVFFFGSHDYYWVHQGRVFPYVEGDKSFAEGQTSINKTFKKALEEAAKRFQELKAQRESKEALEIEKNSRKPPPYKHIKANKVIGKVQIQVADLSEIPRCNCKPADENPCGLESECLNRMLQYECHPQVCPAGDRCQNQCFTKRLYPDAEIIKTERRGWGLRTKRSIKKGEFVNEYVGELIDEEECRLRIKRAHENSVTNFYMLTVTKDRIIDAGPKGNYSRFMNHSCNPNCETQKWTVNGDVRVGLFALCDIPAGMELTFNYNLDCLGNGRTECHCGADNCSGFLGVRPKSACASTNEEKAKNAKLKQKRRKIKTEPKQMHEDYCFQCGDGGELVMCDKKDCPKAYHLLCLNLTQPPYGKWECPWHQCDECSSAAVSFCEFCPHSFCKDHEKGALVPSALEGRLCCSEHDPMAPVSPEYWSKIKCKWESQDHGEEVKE

NCI-H1703 [4] = test: Induction of apoptosis in human NCI-H1703 cells assessed as necrotic cells at 5 uM measured after 72 hrs by PI/Annexin-V staining based flow cytometry analysis (reference value: 2.80% ); format: functional
NCI-H1703 [5] = test: Induction of apoptosis in human NCI-H1703 cells assessed as decrease in Bcl-XL protein expression at 5 to 10 uM by Western blot analysis; format: functional, cell-based; details: dose 5-10 µM
NCI-H1703 [6] = test: Induction of apoptosis in human NCI-H1703 cells assessed as late apoptotic cells at 5 uM measured after 72 hrs by PI/Annexin-V staining based flow cytometry analysis (reference value: 3.00% ); format: functional
[7] = target: Histone-lysine N-methyltransferase, H3 lysine-36 specific (Homo sapiens) (UniProt Q96L73); test: Induction of NSD1 degradation in human NCI-H1703 cells at 3 to […] incubated for 72 hrs by Western blot analysis; format: cell-based; details: dose 3-7.5 µM
[8] = target: T1, Histone-lysine N-methyltransferase NSD3 (Homo sapiens); test: Induction of NSD3 degradation in human NCI-H1703 cells at 5 uM incubated for 72 hrs by Western blot analysis; format: cell-based
[9] = target: T2, Histone-lysine N-methyltransferase NSD3 (Homo sapiens, UniProt Q9BZ95); test: Induction of NSD3 degradation in human A549 cells measured after 72 hrs by Western blot analysis; format: cell-based
T2 sequence (Q9BZ95 whole entry): T1 sequence (whole entry)

[10] = Downregulation of CDC25A level in human NCI-H1703 cells at […] by measuring fold change by Western blot analysis relative to control; format: functional; details: dose 7.5 µM
NCI-H1703 [11] = test: Downregulation of ALDH1A1 in human NCI-H1703 cells at […] measured after 72 hrs by RNA sequencing assay; format: functional, cell-based; details: dose 7.5 µM
NCI-H1703 [12] = test: Induction of apoptosis in human NCI-H1703 cells assessed as decrease in MCL-1 protein expression at 10 uM by measuring fold change by Western blot analysis relative to control; format: functional
NCI-H1703 [13] = test: Induction of apoptosis in human NCI-H1703 cells assessed as decrease in MCL-1 protein expression at 5 uM by measuring fold change by Western blot analysis relative to control; format: functional
NCI-H1703 [14] = test: Induction of apoptosis in human NCI-H1703 cells assessed as decrease in NSD3 protein expression at 10 uM by measuring fold change by Western blot analysis relative to control; format: functional
[15] = target: T1, Histone-lysine N-methyltransferase NSD3 (Homo sapiens); test: Induction of NSD3 degradation in human NCI-H1703 cells at 5 uM measured after 48 hrs by Western blot analysis relative to control; format: cell-based
NCI-H520 [16] = test: Induction of apoptosis in human NCI-H520 cells assessed as decrease in NSD3 protein expression at […] by measuring fold change by Western blot analysis relative to control; format: functional; details: dose 7.5 µM
NCI-H1703 [17] = test: Downregulation of IGFBP3 in human NCI-H1703 cells at […] measured after 72 hrs by RNA sequencing assay; format: functional, cell-based; details: dose 7.5 µM
NCI-H1703 [18] = test: Induction of apoptosis in human NCI-H1703 cells assessed as decrease in MCL-1 protein expression at […] by measuring fold change by Western blot analysis relative to control; format: functional; details: dose 7.5 µM
[19] = Downregulation of NSD3 level in human NCI-H520 cells at 5 uM by measuring fold change by Western blot analysis relative to control; format: functional
NCI-H1703 [20] = test: Downregulation of CyclinD1 level in human NCI-H1703 cells at 3 to […] by Western blot analysis; format: functional, cell-based; details: dose 3-7.5 µM
[21] = target: T1, Histone-lysine N-methyltransferase NSD3 (Homo sapiens); test: Induction of NSD3 degradation in human NCI-H1703 cells at […] incubated for 48 hrs in presence of MG132 by Western blot analysis; format: cell-based; details: dose 7.5 µM

Chain of Histone-lysine N-methyltransferase, H3 lysine-36 specific (Homo sapiens) (Q96L73 whole entry): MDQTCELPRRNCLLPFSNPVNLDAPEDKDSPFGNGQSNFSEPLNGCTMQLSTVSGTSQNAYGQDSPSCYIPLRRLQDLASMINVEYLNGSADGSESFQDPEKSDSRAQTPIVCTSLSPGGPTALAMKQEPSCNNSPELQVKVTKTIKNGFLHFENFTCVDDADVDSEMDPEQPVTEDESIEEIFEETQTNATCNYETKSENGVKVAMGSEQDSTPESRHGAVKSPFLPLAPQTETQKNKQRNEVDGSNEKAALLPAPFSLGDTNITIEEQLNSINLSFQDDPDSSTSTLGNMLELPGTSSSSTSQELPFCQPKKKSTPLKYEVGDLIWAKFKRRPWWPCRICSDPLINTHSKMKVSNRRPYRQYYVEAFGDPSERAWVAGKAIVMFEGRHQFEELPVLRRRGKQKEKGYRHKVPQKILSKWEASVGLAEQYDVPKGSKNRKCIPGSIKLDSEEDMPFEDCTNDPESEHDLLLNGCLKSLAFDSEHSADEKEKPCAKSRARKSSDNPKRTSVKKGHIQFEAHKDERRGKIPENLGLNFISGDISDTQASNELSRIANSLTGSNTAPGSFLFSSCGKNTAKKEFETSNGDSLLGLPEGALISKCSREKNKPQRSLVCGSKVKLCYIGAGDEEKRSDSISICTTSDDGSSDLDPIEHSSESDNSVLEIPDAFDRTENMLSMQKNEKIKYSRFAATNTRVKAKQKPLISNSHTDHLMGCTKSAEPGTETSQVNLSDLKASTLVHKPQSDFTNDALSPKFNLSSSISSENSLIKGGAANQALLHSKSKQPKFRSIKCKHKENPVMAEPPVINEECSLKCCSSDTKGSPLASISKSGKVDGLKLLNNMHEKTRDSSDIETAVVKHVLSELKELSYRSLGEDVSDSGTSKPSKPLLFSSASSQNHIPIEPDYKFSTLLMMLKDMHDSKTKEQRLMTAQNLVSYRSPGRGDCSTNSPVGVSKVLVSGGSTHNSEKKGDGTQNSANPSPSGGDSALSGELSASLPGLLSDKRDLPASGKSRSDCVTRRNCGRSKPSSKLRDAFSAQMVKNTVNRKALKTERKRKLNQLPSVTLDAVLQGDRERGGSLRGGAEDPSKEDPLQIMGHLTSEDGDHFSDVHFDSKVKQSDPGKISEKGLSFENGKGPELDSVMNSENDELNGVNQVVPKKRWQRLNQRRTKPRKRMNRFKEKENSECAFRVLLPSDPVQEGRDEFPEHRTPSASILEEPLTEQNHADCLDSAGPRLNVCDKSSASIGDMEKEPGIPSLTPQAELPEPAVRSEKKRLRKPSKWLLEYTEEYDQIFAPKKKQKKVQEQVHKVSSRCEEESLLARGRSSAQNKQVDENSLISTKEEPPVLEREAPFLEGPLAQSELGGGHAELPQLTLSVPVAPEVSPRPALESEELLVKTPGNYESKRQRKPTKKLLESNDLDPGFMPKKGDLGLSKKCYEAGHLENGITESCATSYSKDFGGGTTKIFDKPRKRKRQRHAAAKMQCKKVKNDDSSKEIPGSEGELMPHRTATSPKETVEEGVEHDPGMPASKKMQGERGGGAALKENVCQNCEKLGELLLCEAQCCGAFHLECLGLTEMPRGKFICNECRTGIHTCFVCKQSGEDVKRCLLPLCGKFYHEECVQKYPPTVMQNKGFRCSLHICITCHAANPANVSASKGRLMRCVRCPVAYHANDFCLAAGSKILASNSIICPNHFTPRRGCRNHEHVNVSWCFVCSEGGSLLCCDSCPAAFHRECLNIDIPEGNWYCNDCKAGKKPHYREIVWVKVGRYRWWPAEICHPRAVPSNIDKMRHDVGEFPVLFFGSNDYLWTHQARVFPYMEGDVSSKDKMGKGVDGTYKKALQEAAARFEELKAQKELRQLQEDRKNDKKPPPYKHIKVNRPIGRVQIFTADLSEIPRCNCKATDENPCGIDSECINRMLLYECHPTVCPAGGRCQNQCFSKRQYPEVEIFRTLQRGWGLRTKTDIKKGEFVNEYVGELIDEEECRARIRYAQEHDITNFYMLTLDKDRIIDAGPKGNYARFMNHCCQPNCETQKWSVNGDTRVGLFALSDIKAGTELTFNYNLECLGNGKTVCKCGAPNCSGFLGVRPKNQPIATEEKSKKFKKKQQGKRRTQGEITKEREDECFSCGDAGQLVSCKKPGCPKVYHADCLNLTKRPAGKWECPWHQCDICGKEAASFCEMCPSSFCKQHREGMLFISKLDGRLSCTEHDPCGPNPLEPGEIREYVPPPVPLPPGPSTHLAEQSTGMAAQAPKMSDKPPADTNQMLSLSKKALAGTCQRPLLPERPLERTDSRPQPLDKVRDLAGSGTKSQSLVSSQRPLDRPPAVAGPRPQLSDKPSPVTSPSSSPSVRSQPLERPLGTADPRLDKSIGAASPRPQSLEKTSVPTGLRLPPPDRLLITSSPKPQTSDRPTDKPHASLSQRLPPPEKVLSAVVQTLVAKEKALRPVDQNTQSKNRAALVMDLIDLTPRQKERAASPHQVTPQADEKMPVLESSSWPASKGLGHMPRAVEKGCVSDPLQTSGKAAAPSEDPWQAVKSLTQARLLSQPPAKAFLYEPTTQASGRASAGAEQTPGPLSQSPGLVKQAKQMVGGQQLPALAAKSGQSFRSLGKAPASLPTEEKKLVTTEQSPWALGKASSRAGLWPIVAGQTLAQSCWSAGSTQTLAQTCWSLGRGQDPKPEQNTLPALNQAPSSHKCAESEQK

Activity [3]: Dose-Dependent Effect
Activity [7]: inactive
NSD3 degradation [8]: 58.9%
EC50 [9]: 940 nM
Activity [15]: 60%
Activity [21]: inactive
Compound: Cc1cc(CNCCCCCCCCCCC(=O)N[C@H](C(=O)N2C[C@H](O)C[C@H]2C(=O)N[C@@H](C)c2ccc(-c3scnc3C)cc2)C(C)(C)C)cc(C)c1-c1ncn(C)c1-c1ccnc2cc(F)ccc12
fold change (FC) (NCI-H1703 [1]): 1.1
fold change (FC) (NCI-H520 [2]): 0.89
Activity (NCI-H1703 [4]): 7.21%
Activity (NCI-H1703 [5]): Active
Activity (NCI-H1703 [6]): 6.08%
fold change (FC) [10]: 0.77
Activity (NCI-H1703 [11]): Active
fold change (FC) (NCI-H1703 [12]): 0.53
fold change (FC) (NCI-H1703 [13]): 0.8
fold change (FC) (NCI-H1703 [14]): 0.63
fold change (FC) (NCI-H520 [16]): 0.5
Activity (NCI-H1703 [17]): Active
fold change (FC) (NCI-H1703 [18]): 0.54
fold change (FC) [19]: 0.7
Activity (NCI-H1703 [20]): Active

— ChEMBL document CHEMBL5338706, “Discovery of a potent and selective proteolysis targeting chimera (PROTAC) degrader of NSD3 histone methyltransferase” (Eur J Med Chem, 2022)
